From publication PMC11489226 (Archives of Toxicology, 2024)

Molecular target: T1, CYP2C9 (Homo sapiens, UniProt P11712)
T1 construct: V5-His (vector-encoded) (C); expressed in transfected cells
Assay: Metabolism in transgenic HEK293 cells expressing CYP2C9
Assay type: in vitro ADME
Conditions: HEK293CYP2C9; 10 µM substrate, 24 h
Method: For the generation of transgenic cell lines, we used semi-adherent HEK293 cells (DSMZ, ACC305, human embryonic kidney cells) which were cultured on a daily basis in DMEM medium supplemented with 10% (FCS) and 1% penicillin/streptomycin. In a first step CYP1A2, CYP2C8, CYP2C9, CYP3A4, CYP2A6, and CYP2E1 cDNA were cloned into the plasmid pcDNATM3.1/V5-His TOPO® using human liver RNA as a template and using the following primers: CYP1A2 for5′-[…]-3′, CYP1A2 rev 5′-[…]-3′; CYP2C8 for 5′-[…]-3′, CYP2C8 rev 5′-[…]-3′; CYP2C9 for 5′-[…]-3′, CYP2C9 rev 5′-[…]-3′; CYP3A4 for 5′-[…]-3′, CYP3A4 rev 5′-[…]-3′, CYP2A6 for 5′-[…]-3′, CYP2A6 rev 5′-[…]-3′; CYP2E1 for 5′-[…]-3′, CYP2E1 rev 5′-[…]-3′. Final constructs were verified with Sanger DNA sequencing and restriction digestion. For transfection, 3 × 10^6 HEK293 cells were pre-incubated in a 10 cm dish in DMEM medium with 10% FCS, but without antibiotics, for 18 to 24 h. When the cells reached approximately 70% confluency, they were transfected using TransIT-LT1 transfection reagent (Biozol, Eiching, Germany). […]
HEK293 cells overexpressing the respective CYP enzymes were seeded onto 6-well plates and were treated with or without 10 µM of the respective probe drug in DMEM medium for 24 hours at 37 °C and 5 % CO2. […] Analytes were measured by LC-MS/MS either in methanol cell lysates or in DMEM supernatant. […]

T1 sequence (P11712 whole entry): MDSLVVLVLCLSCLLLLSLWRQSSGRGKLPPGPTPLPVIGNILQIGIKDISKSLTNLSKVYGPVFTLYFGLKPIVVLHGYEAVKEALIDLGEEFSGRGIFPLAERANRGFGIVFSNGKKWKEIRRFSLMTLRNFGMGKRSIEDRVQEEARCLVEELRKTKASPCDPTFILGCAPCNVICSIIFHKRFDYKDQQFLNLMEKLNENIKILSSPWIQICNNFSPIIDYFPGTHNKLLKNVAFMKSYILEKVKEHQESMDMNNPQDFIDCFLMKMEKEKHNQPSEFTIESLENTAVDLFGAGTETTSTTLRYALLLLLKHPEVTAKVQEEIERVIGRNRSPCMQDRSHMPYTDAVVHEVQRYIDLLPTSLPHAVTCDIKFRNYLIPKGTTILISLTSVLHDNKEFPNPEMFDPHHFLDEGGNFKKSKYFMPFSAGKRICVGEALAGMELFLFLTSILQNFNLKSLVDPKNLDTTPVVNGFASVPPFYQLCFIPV

Cc1cccc(Nc2ccncc2S(=O)(=O)NC(=O)NC(C)C)c1 [Torasemide]
Conversion product: Hydroxy torasemide
